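Where inhibition never reached the appropriate level, the endpoint shown equals the highest concentration tested. Otherwise, values were interpolated linearly from a five-concentration, 48-hour dose response in 96-well plates. The concentration for 50% growth inhibition is given as GI50. TGI: total growth inhibition.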 Where a SMILES comes first, the peptide text is derived from it. [ ]: non-standard residue; d: D form. pGlu = O=C1CC[CH](C(=O)O)N1
Legend:
Assay in all cases: inhibition of tumour cell growth, NCI panel, 48 h
[1] = tested on: MDA-MB-468 breast
[2] = tested on: ACHN renal
[3] = tested on: PC-3 prostate
[4] = tested on: T-47D breast
[5] = tested on: OVCAR-4 ovarian
[6] = tested on: U251 CNS
[7] = tested on: BT-549 breast
[8] = tested on: SK-MEL-28 melanoma
[9] = tested on: SK-MEL-5 melanoma
[10] = tested on: CCRF-CEM leukemia
[11] = tested on: COLO 205 colon
[12] = tested on: SK-MEL-2 melanoma
[13] = tested on: TK-10 renal
[14] = tested on: NCI-H460 lung
[15] = tested on: OVCAR-8 ovarian
[16] = tested on: CAKI-1 renal
[17] = tested on: UO-31 renal
[18] = tested on: DU-145 prostate
[19] = tested on: EKVX NSCLC
[20] = tested on: SF-268 CNS
[21] = tested on: 786-0 renal
[22] = tested on: MOLT-4 leukemia
[23] = tested on: SNB-19 CNS
[24] = tested on: M14 melanoma
[25] = tested on: MDA-MB-435
[26] = tested on: SK-OV-3 ovarian
[27] = tested on: HCT-116 colon
[28] = tested on: SR leukemia
[29] = tested on: IGROV1 ovarian
[30] = tested on: NCI/ADR-RES ovarian
[31] = tested on: SF-295 CNS
[32] = tested on: HT29 colon
[33] = tested on: UACC-257 melanoma
[34] = tested on: SNB-75 CNS
[35] = tested on: A498 renal
[36] = tested on: SF-539 CNS
[37] = tested on: NCI-H23 lung
[38] = tested on: KM12 colon
[39] = tested on: HOP-92 NSCLC
[40] = tested on: A549 NSCLC
[41] = tested on: SN12C renal
[42] = tested on: HL-60(TB) leukemia
[43] = tested on: OVCAR-5 ovarian
[44] = tested on: MCF7 breast
[45] = tested on: HOP-62 NSCLC
[46] = tested on: K-562 leukemia
[47] = tested on: RXF 393 renal
[48] = tested on: HCC-2998 colon
[49] = tested on: NCI-H226 lung
[50] = tested on: HCT-15 colon
[51] = tested on: RPMI-8226 leukemia
[52] = tested on: UACC-62 melanoma
[53] = tested on: OVCAR-3 ovarian
[54] = tested on: MALME-3M melanoma
[55] = tested on: NCI-H522 lung

IP(CCCSc1n(Cc2ccc3ccccc3c2)c(-c2ccccc2)c(-c2ccccc2)[n+]1Cc1ccc2ccccc2c1)(c1ccccc1)(c1ccccc1)c1ccccc1
GI50 [1]: 2.25 µM
TGI [1]: 5.97 µM

CCN(Cc1ccc(Cl)cc1)c1ccc(CO)c(Cl)c1
GI50 [1]: 0.02 µM
TGI [1]: 0.0626 µM

O=C(CCCCCCNC(=O)c1cnc(N(c2ccccc2)c2ccccc2)nc1)NO
GI50 [1]: 1.22 µM
TGI [1]: 10.2 µM

Oc1c(-c2nnc(-c3ccccc3Cl)o2)sc2nnc(-c3ccccc3)c(-c3ccccc3)c12
GI50 [1]: 5.11 µM
TGI [1]: 27.8 µM

C=CCN=c1sc2c(n1NC(=O)c1cc3ccc1CCc1ccc(cc1)CC3)C(=O)c1ccccc1C2=O
GI50 [1]: 2.28 µM
TGI [1]: 5.72 µM

COc1ccc(-c2nn(-c3cccc(Cl)c3)cc2-c2cc(-c3cccs3)[nH]c(=S)n2)cc1
GI50 [1]: 2.57 µM
TGI [1]: 9.91 µM

C=C1C(=O)O[C@H]2[C@H]1CC/C(COC(=O)CSCSCC(=O)OC/C1=C/CC[C@@]3(C)O[C@H]3[C@H]3OC(=O)C(=C)[C@@H]3CC1)=C\CC[C@@]1(C)O[C@@H]21
GI50 [1]: 1.07 µM
TGI [1]: 2.7 µM

COc1ncnc2c(-c3ccccc3)cn(COCc3ccccc3)c12
GI50 [1]: 1.74 µM
TGI [1]: 6.82 µM

C[C@H](NC(=O)[C@@H](C)N)[C@H](Oc1ccc2c(cnn2-c2ccc(F)cc2)c1)c1ccc2c(c1)OCCO2
GI50 [1]: 2.12 µM
TGI [1]: 4.05 µM

CCNC(=O)C1CCCN1C(=O)C(CCCN=C(N)N)NC(=O)C(CC(C)C)NC(=O)C(CC(C)C)NC(=O)C(Cc1ccc(O)cc1)NC(=O)C(CO)NC(=O)C(Cc1c[nH]c2ccccc12)NC(=O)C(Cc1cnc[nH]1)NC(=O)C1CCC(=O)N1 (stereo not drawn) ([pGlu]HWSYLLRP-NHEt; configuration not given here)
GI50 [1]: > 100 µM
TGI [1]: > 100 µM

COc1cccc(N2CCN(CC(=O)N3CCN(c4nnc(-c5ccc(Cl)cc5)c(-c5ccc(Cl)cc5)n4)CC3)CC2)c1
GI50 [1]: 22.5 µM
TGI [1]: > 100 µM

C[C@]12CC[C@@H]3c4ccc(OC(=O)N(CCCl)CCCl)cc4CC[C@H]3[C@@H]1CC[C@@H]2O
GI50 [1]: 1.69 µM
TGI [1]: 4.21 µM

CCN(Cc1cc(Nc2nc(C)cn3c(-c4cn[nH]c4)cnc23)sn1)C(C)(C)CO
GI50 [1]: < 0.0123 µM
TGI [1]: 0.233 µM

O=C(Nc1cccc(-c2nc(-c3ccc(NC(=O)c4cccnc4)cc3Cl)no2)c1)Nc1ccc(NC(=O)C2CC2)c(C(F)(F)F)c1
GI50 [1]: 0.193 µM
TGI [1]: 0.691 µM

COc1cc(/C=C\c2cc(OC)c(OC)c(OC)c2)cc(NC(=O)/C=C/c2cc(OC)c(OC)c(OC)c2)c1OC
GI50 [1]: 1.99 µM
TGI [1]: > 100 µM

O=c1[nH]nnc2c1ncn2C1OC(CO)C(O)C1O (stereo not drawn)
GI50 [1]: 3.36 µM
TGI [1]: > 100 µM

N#Cc1ccc(OCc2nc(N)nc(N)c2-c2ccc(Cl)c(Cl)c2)cc1
GI50 [1]: 1.53 µM
TGI [1]: 53.9 µM

COc1ccc(C(=S)N2CCN(c3cccc(C)c3)CC2)cc1OC
GI50 [1]: 2.65 µM
TGI [1]: > 100 µM

Fc1ccc(C2CC(c3cccc(Nc4ccncc4)c3)=NN2c2ccc(Cl)cc2)cc1 (stereo not drawn)
GI50 [1]: 1.42 µM
TGI [1]: 2.93 µM

O=C(Cn1c(/C=C/c2ccccc2)nc2ccccc2c1=O)Nc1ccc(Cl)cc1
GI50 [2]: 16 µM
TGI [2]: 49.6 µM
GI50 [3]: > 100 µM
TGI [3]: > 100 µM
GI50 [4]: 15.8 µM
TGI [4]: 47.5 µM
GI50 [5]: 9.54 µM
TGI [5]: > 100 µM
GI50 [6]: 13.9 µM
TGI [6]: > 100 µM
GI50 [7]: > 100 µM
TGI [7]: > 100 µM
GI50 [8]: > 100 µM
TGI [8]: > 100 µM
GI50 [9]: > 100 µM
TGI [9]: > 100 µM
GI50 [10]: > 100 µM
TGI [10]: > 100 µM
GI50 [11]: > 100 µM
TGI [11]: > 100 µM
GI50 [12]: > 100 µM
TGI [12]: > 100 µM
GI50 [13]: 21.4 µM
TGI [13]: 46 µM
GI50 [14]: 39.6 µM
TGI [14]: > 100 µM
GI50 [15]: > 100 µM
TGI [15]: > 100 µM
GI50 [16]: 69 µM
TGI [16]: > 100 µM
GI50 [17]: 21.3 µM
TGI [17]: 64.8 µM
GI50 [18]: > 100 µM
TGI [18]: > 100 µM
GI50 [19]: > 100 µM
TGI [19]: > 100 µM
GI50 [20]: > 100 µM
TGI [20]: > 100 µM
GI50 [21]: 18.4 µM
TGI [21]: 64.8 µM
GI50 [22]: > 100 µM
TGI [22]: > 100 µM
GI50 [23]: 32.7 µM
TGI [23]: > 100 µM
GI50 [24]: > 100 µM
TGI [24]: > 100 µM
GI50 [25]: > 100 µM
TGI [25]: > 100 µM
GI50 [26]: 24.8 µM
TGI [26]: 57.4 µM
GI50 [27]: 46 µM
TGI [27]: > 100 µM
GI50 [28]: > 100 µM
TGI [28]: > 100 µM
GI50 [29]: 70.1 µM
TGI [29]: > 100 µM
GI50 [30]: 71.4 µM
TGI [30]: > 100 µM
GI50 [31]: 26.8 µM
TGI [31]: > 100 µM
GI50 [32]: > 100 µM
TGI [32]: > 100 µM
GI50 [33]: > 100 µM
TGI [33]: > 100 µM
GI50 [34]: 19.4 µM
TGI [34]: 53.8 µM
GI50 [35]: 22.2 µM
TGI [35]: 40.9 µM
GI50 [36]: 30.9 µM
TGI [36]: > 100 µM
GI50 [37]: 34.4 µM
TGI [37]: > 100 µM
GI50 [38]: > 100 µM
TGI [38]: > 100 µM
GI50 [1]: 29.2 µM
TGI [1]: > 100 µM
GI50 [39]: 11.2 µM
TGI [39]: 32.2 µM
GI50 [40]: 87.2 µM
TGI [40]: > 100 µM
GI50 [41]: 16.7 µM
TGI [41]: > 100 µM
GI50 [42]: > 100 µM
TGI [42]: > 100 µM
GI50 [43]: > 100 µM
TGI [43]: > 100 µM
GI50 [44]: > 100 µM
TGI [44]: > 100 µM
GI50 [45]: 24.7 µM
TGI [45]: 80.1 µM
GI50 [46]: > 100 µM
TGI [46]: > 100 µM
GI50 [47]: 14.4 µM
TGI [47]: 35.3 µM
GI50 [48]: > 100 µM
TGI [48]: > 100 µM
GI50 [49]: 23.9 µM
TGI [49]: > 100 µM
GI50 [50]: > 100 µM
TGI [50]: > 100 µM
GI50 [51]: > 100 µM
TGI [51]: > 100 µM
GI50 [52]: > 100 µM
TGI [52]: > 100 µM
GI50 [53]: 60.6 µM
TGI [53]: > 100 µM
GI50 [54]: 71.3 µM
TGI [54]: > 100 µM
GI50 [55]: 83.4 µM
TGI [55]: > 100 µM

CCOC(=O)c1c(C)nc2c(c1N)CC(=O)N2Cc1ccc(OC)cc1
GI50 [1]: 27.3 µM
TGI [1]: > 100 µM

CCCCCCCCNc1cc2c3c(c1)CCCN3CCC2
GI50 [1]: 1.54 µM
TGI [1]: 5.31 µM

Clc1nc(Cl)c2ncn(CC3(Cn4cnc5c(Cl)nc(Cl)nc54)COC3)c2n1
GI50 [1]: 0.192 µM
TGI [1]: 0.408 µM

ClCc1cccc2c(CCl)cccc12
GI50 [1]: 1.12 µM
TGI [1]: 3.05 µM

Cc1cccc(/C=C/c2c(C(=O)/C=C/c3ccccc3)c(C)nc3ccccc23)c1
GI50 [1]: 1.9 µM
TGI [1]: 3.79 µM

O=C(Oc1cccc(F)c1OC(=O)c1cccc(O)c1)c1cccc(O)c1
GI50 [1]: 18.2 µM
TGI [1]: 55.2 µM

C=C1C(=O)O[C@H]2[C@H]1CC/C(CNC(=O)/C=C/c1cc(OC)c(OC)c(OC)c1)=C\CC[C@@]1(C)O[C@@H]21
GI50 [1]: 0.22 µM
TGI [1]: 1.06 µM

CCOC(=O)Nc1ccc2c(c1)/C(=N\NC(N)=S)c1ccccc1-2
GI50 [1]: 3.46 µM
TGI [1]: 25 µM

COc1ccc2sc(NC(=O)CCCCCCNC(=O)C(O)(O)C(F)(F)F)nc2c1
GI50 [1]: 0.665 µM
TGI [1]: 1.81 µM

O=C(c1ccccc1)c1ccccc1-c1ccccc1
GI50 [1]: 0.768 µM
TGI [1]: 3.7 µM

CCN1C(=O)N(CC)C2C1NN=c1s/c(=C\c3cccc(F)c3)c(=O)n12 (stereo not drawn)
GI50 [1]: 0.183 µM
TGI [1]: > 100 µM

CN(CCO)CC[C@H](CSc1ccccc1)Nc1ccc(S(=O)(=O)NC(=O)c2ccc(N3CCC([C@@H](O)c4ccccc4-c4ccc(Cl)cc4)CC3)cc2)cc1S(=O)(=O)C(F)(F)F
GI50 [1]: 1.87 µM
TGI [1]: 5.19 µM

C/C=C(\C)C(=O)NC1=CC[C@@]2(C)C(=CCC3C2CC[C@@]2(C)C3CC[C@@H]2C(C)N(C)C)C1=O (stereo partly drawn)
GI50 [1]: 2 µM
TGI [1]: 9.56 µM

O=c1[nH]c(=O)c2cn[nH]c2[nH]1
GI50 [1]: > 100 µM
TGI [1]: > 100 µM

O=C(Nc1cc(Cl)cc(Cl)c1)Nc1nc2ccc([N+](=O)[O-])cc2s1
GI50 [1]: 1 µM
TGI [1]: 4.22 µM
